Assay results reported in US20240384350A1, “METHODS OF TREATING CANCER WITH KINASE INHIBITORS” (BOARD OF REGENTS, THE UNIVERSITY OF TEXAS SYSTEM, priority 2021, published 2024).

How the values were obtained:
Assay in all cases: Ba/F3 drug screening, Cell Titer Glo, IC50 Mut/WT
Format in all cases: cell-based
EGFR N771dupN G724S = target: T1, EGFR N771dupN G724S (Homo sapiens, UniProt P00533, DUP771-771/G724S); details: Ex20, 72 hours
T1 construct: expressed in transfected cells; host or cells: Ba/F3 cells, retroviral pBabe-Puro vector (vector made by GeneScript from EGFR G724S, c.2313_2314insAAC)
Protocol: (§1) Data represent the ratio of the IC50 value for a given TKI for cells with an ex20ins EGFR mutation to the IC50 value for cells with wildtype EGFR.
(§2) Ba/F3 cell generation, drug screening, and IC50 approximations. Ba/F3 cells were obtained as a gift from Dr. Gordon Mills (MD Anderson Cancer Center), and maintained in RPMI (Sigma) containing 10% FBS, 1% penicillin/streptomycin, and 10 ng/ml recombinant mIL-3 (R&D Biosystems). To establish stable Ba/F3 cell lines, Ba/F3 cells were transduced with retroviruses containing mutant EGFR plasmids for 12-24 hours.
(§3) After 48-72 hours of transduction, 2 μg/ml puromycin (Invitrogen) was added to Ba/F3 cell lines in complete RPMI. To select for EGFR positive cell lines, cells were stained with PE-EGFR (Biolegend) and sorted by FACS. After sorting, EGFR positive cells were maintained in RPMI containing 10% FBS, 1% penicillin/streptomycin, and 1 ng/ml EGF to support cell viability. Drug screening was performed as previously described^41,42. Shortly, cells were plated in 384-well plates (Greiner Bio-One) at 2000-3000 cells per well in technical triplicate. Seven different concentrations of TKIs or DMSO vehicle were added to reach a final volume of 40 μL per well. After 72 hours, 11 μL of Cell Titer Glo (Promega) was added to each well. Plates were incubated for a minimum of 10 minutes, and bioluminescence was determined using a FLUOstar OPTIMA plate reader (BMG LABTECH). Raw bioluminescence values were normalized to DMSO control treated cells, and values were plotted in GraphPad Prism. […] Drug screens were performed in technical triplicate on each plate and either duplicate or triplicate biological replicates. […] Statistical differences between groups were determined by ANOVA as described in the figure legends.

EGFR S768dupSVD V769M = target: T2, EGFR S768dupSVD V769M (Homo sapiens, UniProt P00533, INS768MDS/V769M); details: Ex20, 72 hours
T2 construct: expressed in transfected cells; host or cells: Ba/F3 cells, retroviral pBabe-Puro vector (vector made by GeneScript from EGFR S768dupSVD, c.2305G > A)

EGFR S768I = target: T3, EGFR S768I (Homo sapiens, UniProt P00533, S768I); details: PACC; S768I; Ba/F3; 72 hours
T3 construct: expressed in transfected cells; host or cells: Ba/F3

EGFR G719A/R776C = target: T4, EGFR G719A/R776C (Homo sapiens, UniProt P00533, G719A/R776C); details: PACC; G719A/R776C; Ba/F3; 72 hours
T4 construct: expressed in transfected cells; host or cells: Ba/F3

EGFR E709K = target: T5, EGFR E709K (Homo sapiens, UniProt P00533, E709K); details: PACC; E709K; Ba/F3; 72 hours
T5 construct: expressed in transfected cells; host or cells: Ba/F3
Protocol: (§4) Data represent the ratio of the IC50 value for a given TKI for cells with a PACC EGFR mutation to the IC50 value for cells with wildtype EGFR.
as §2
(§5) After 48-72 hours of transduction, 2 μg/ml puromycin (Invitrogen) was added to Ba/F3 cell lines in complete RPMI. To select for EGFR positive cell lines, cells were stained with PE-EGFR (Biolegend) and sorted by FACS. After sorting, EGFR positive cells were maintained in RPMI containing 10% FBS, 1% penicillin/streptomycin, and 1 ng/ml EGF to support cell viability. Drug screening was performed as previously described^41,42. Shortly, cells were plated in 384-well plates (Greiner Bio-One) at 2000-3000 cells per well in technical triplicate. Seven different concentrations of TKIs or DMSO vehicle were added to reach a final volume of 40 μL per well. After 72 hours, 11 μL of Cell Titer Glo (Promega) was added to each well. Plates were incubated for a minimum of 10 minutes, and bioluminescence was determined using a FLUOstar OPTIMA plate reader (BMG LABTECH). Raw bioluminescence values were normalized to DMSO control treated cells, and values were plotted in GraphPad Prism. […] Drug screens were performed in technical triplicate on each plate and either duplicate or triplicate biological replicates.

EGFR G724S T790M = target: T6, EGFR G724S T790M (Homo sapiens, UniProt P00533, G724S/T790M); details: T790M-like-3R, 72 hours
T6 construct: expressed in transfected cells; host or cells: Ba/F3
Protocol: Data represent the ratio of the IC50 value for a given TKI for cells with a T790M-like-3R EGFR mutation to the IC50 value for cells with wildtype EGFR.
as §2
After 48-72 hours of transduction, 2 μg/ml puromycin (Invitrogen) was added to Ba/F3 cell lines in complete RPMI. To select for EGFR positive cell lines, cells were stained with PE-EGFR (Biolegend) and sorted by FACS. After sorting, EGFR positive cells were maintained in RPMI containing 10% FBS, 1% penicillin/streptomycin, and 1 ng/ml EGF to support cell viability. […] Shortly, cells were plated in 384-well plates (Greiner Bio-One) at 2000-3000 cells per well in technical triplicate. Seven different concentrations of TKIs or DMSO vehicle were added to reach a final volume of 40 μL per well. After 72 hours, 11 μL of Cell Titer Glo (Promega) was added to each well. Plates were incubated for a minimum of 10 minutes, and bioluminescence was determined using a FLUOstar OPTIMA plate reader (BMG LABTECH). Raw bioluminescence values were normalized to DMSO control treated cells, and values were plotted in GraphPad Prism. […] Drug screens were performed in technical triplicate on each plate and either duplicate or triplicate biological replicates. […] Statistical differences between groups were determined by ANOVA as described in the figure legends.

EGFR I740dupIPVAK = details: PACC; I740dupIPVAK; Ba/F3; 72 hours
EGFR L858R/T790M/L718Q = target: T7, EGFR L858R/T790M/L718Q (Homo sapiens, UniProt P00533, L718Q/L858R/T790M); details: T790M-like-3R, 72 hours
T7 construct: expressed in transfected cells; host or cells: Ba/F3

EGFR T725M = target: T8, EGFR T725M (Homo sapiens, UniProt P00533, T725M); details: Classical-Like, 72 hours
T8 construct: expressed in transfected cells; host or cells: Ba/F3 cells, retroviral pBabe-Puro vector (vector made by GeneScript from EGFR WT)
Protocol: (§6) Data represent the ratio of the IC50 value for a given TKI for cells with a classical-like EGFR mutation to the IC50 value for cells with wildtype EGFR.
as §2
(§7) After 48-72 hours of transduction, 2 μg/ml puromycin (Invitrogen) was added to Ba/F3 cell lines in complete RPMI. To select for EGFR positive cell lines, cells were stained with PE-EGFR (Biolegend) and sorted by FACS. After sorting, EGFR positive cells were maintained in RPMI containing 10% FBS, 1% penicillin/streptomycin, and 1 ng/ml EGF to support cell viability. […] Shortly, cells were plated in 384-well plates (Greiner Bio-One) at 2000-3000 cells per well in technical triplicate. Seven different concentrations of TKIs or DMSO vehicle were added to reach a final volume of 40 μL per well. After 72 hours, 11 μL of Cell Titer Glo (Promega) was added to each well. Plates were incubated for a minimum of 10 minutes, and bioluminescence was determined using a FLUOstar OPTIMA plate reader (BMG LABTECH). Raw bioluminescence values were normalized to DMSO control treated cells, and values were plotted in GraphPad Prism. […] Drug screens were performed in technical triplicate on each plate and either duplicate or triplicate biological replicates.

EGFR Ex19del T854I = target: T9, EGFR Ex19del T854I (Homo sapiens, UniProt P00533, DEL746-750/T854I); details: PACC; Ex19del T854I; Ba/F3; 72 hours
T9 construct: expressed in transfected cells; host or cells: Ba/F3 (retroviral transduction, pBabe-Puro based vectors)

EGFR R776C = target: T10, EGFR R776C (Homo sapiens, UniProt P00533, R776C); details: PACC; R776C; Ba/F3; 72 hours
T10 construct: host or cells: Ba/F3
Protocol: as §4, §2, §5

EGFR G724S = target: T11, EGFR G724S (Homo sapiens, UniProt P00533, G724S); details: PACC; G724S; Ba/F3; 72 hours
T11 construct: expressed in transfected cells; host or cells: Ba/F3
Protocol: as §4, §2, §5

EGFR Ex19del/L792H = target: T12, EGFR Ex19del/L792H (Homo sapiens, UniProt P00533, DEL746-750/L792H); details: PACC; Ex19del/L792H; Ba/F3; 72 hours
T12 construct: expressed in transfected cells; host or cells: Ba/F3

EGFR K754E = target: T13, EGFR K754E (Homo sapiens, UniProt P00533, K754E); details: Classical-Like, 72 hours
T13 construct: expressed in transfected cells; host or cells: Ba/F3 cells, retroviral pBabe-Puro vector
Protocol: as §6, §2, §7

EGFR L858R/L718V = target: T14, EGFR L858R/L718V (Homo sapiens, UniProt P00533, L718V/L858R); details: PACC; L858R/L718V; Ba/F3; 72 hours
T14 construct: host or cells: Ba/F3

EGFR E709A G719S = target: T15, EGFR E709A G719S (Homo sapiens, UniProt P00533, E709A/G719S); details: PACC; E709A G719S; Ba/F3; 72 hours
T15 construct: expressed in transfected cells; host or cells: Ba/F3
Protocol: as §4, §2, §5

EGFR D770insNPG = target: T16, EGFR D770insNPG (Homo sapiens, UniProt P00533, INS770NPG); details: Ex20, 72 hours
T16 construct: expressed in transfected cells; host or cells: Ba/F3 cells, retroviral pBabe-Puro vector

EGFR Ex19del T790M = target: T17, EGFR Ex19del T790M (Homo sapiens, UniProt P00533, DEL746-750/T790M); details: T790M-like-3S, 72 hours
T17 construct: expressed in transfected cells; host or cells: Ba/F3
Protocol: Data represent the ratio of the IC50 value for a given TKI for cells with a T790M-like-3S EGFR mutation to the IC50 value for cells with wildtype EGFR.
as §2, §5

EGFR N771dupN = target: T18, EGFR N771dupN (Homo sapiens, UniProt P00533, DUP771-771); details: Ex20, 72 hours
T18 construct: expressed in transfected cells; host or cells: Ba/F3 cells, retroviral pBabe-Puro vector
Protocol: as §1, §2, §3

EGFR L858R/T790M = target: T19, EGFR L858R/T790M (Homo sapiens, UniProt P00533, L858R/T790M); details: T790M-like-3S, 72 hours
T19 construct: expressed in transfected cells; host or cells: Ba/F3

EGFR S720P = target: T20, EGFR S720P (Homo sapiens, UniProt P00533, S720P); details: Classical-Like, 72 hours
T20 construct: expressed in transfected cells; host or cells: Ba/F3 cells, retroviral pBabe-Puro vector (vector made by GeneScript from EGFR WT)

EGFR H773insNPH = target: T21, EGFR H773insNPH (Homo sapiens, UniProt P00533, INS773NPH); details: Ex20, 72 hours
T21 construct: expressed in transfected cells; host or cells: Ba/F3 cells, retroviral pBabe-Puro vector
Protocol: as §1, §2, §3

EGFR D761N = target: T22, EGFR D761N (Homo sapiens, UniProt P00533, D761N); details: Classical-Like, 72 hours
T22 construct: expressed in transfected cells; host or cells: Ba/F3 cells, retroviral pBabe-Puro vector
Protocol: as §6, §2, §7

EGFR Ex19del/C797S = target: T23, EGFR Ex19del/C797S (Homo sapiens, UniProt P00533, C797S/DEL746-750); details: PACC; Ex19del/C797S; Ba/F3; 72 hours
T23 construct: expressed in transfected cells; host or cells: Ba/F3
Protocol: as §4, §2, §5

EGFR E709K L858R = target: T24, EGFR E709K L858R (Homo sapiens, UniProt P00533, E709K/L858R); details: Classical-Like, 72 hours
T24 construct: expressed in transfected cells; host or cells: Ba/F3 cells, retroviral pBabe-Puro vector

EGFR Ex19del/T790M/G724S = target: T25, EGFR Ex19del/T790M/G724S (Homo sapiens, UniProt P00533, DEL746-750/G724S/T790M); details: T790M-like-3S, 72 hours
T25 construct: expressed in transfected cells; host or cells: Ba/F3

ratio of IC50 for cells with mutant EGFR to IC50 for cells with wildtype EGFR (Mut/WT) (EGFR N771dupN G724S): 0.8301
ratio of IC50 for cells with mutant EGFR to IC50 for cells with wildtype EGFR (Mut/WT) (EGFR S768dupSVD V769M): 0.33
ratio of IC50 for cells with mutant EGFR to IC50 for cells with wildtype EGFR (Mut/WT) (EGFR S768I): 0.3863
ratio of IC50 for cells with mutant EGFR to IC50 for cells with wildtype EGFR (Mut/WT) (EGFR G719A/R776C): 0.03266
ratio of IC50 for cells with mutant EGFR to IC50 for cells with wildtype EGFR (Mut/WT) (EGFR E709K): 0.03467
ratio of IC50 for cells with mutant EGFR to IC50 for cells with wildtype EGFR (Mut/WT) (EGFR G724S T790M): 1.041
ratio of IC50 for cells with mutant EGFR to IC50 for cells with wildtype EGFR (Mut/WT) (EGFR I740dupIPVAK): 0.5725
ratio of IC50 for cells with mutant EGFR to IC50 for cells with wildtype EGFR (Mut/WT) (EGFR L858R/T790M/L718Q): 304.5
ratio of IC50 for cells with mutant EGFR to IC50 for cells with wildtype EGFR (Mut/WT) (EGFR T725M): 0.004861
ratio of IC50 for cells with mutant EGFR to IC50 for cells with wildtype EGFR (Mut/WT) (EGFR Ex19del T854I): 0.7019
ratio of IC50 for cells with mutant EGFR to IC50 for cells with wildtype EGFR (Mut/WT) (EGFR R776C): 0.02009
ratio of IC50 for cells with mutant EGFR to IC50 for cells with wildtype EGFR (Mut/WT) (EGFR G724S): 8.499
ratio of IC50 for cells with mutant EGFR to IC50 for cells with wildtype EGFR (Mut/WT) (EGFR Ex19del/L792H): 1.041
ratio of IC50 for cells with mutant EGFR to IC50 for cells with wildtype EGFR (Mut/WT) (EGFR K754E): 0.00723
ratio of IC50 for cells with mutant EGFR to IC50 for cells with wildtype EGFR (Mut/WT) (EGFR L858R/L718V): 0.3578
ratio of IC50 for cells with mutant EGFR to IC50 for cells with wildtype EGFR (Mut/WT) (EGFR E709A G719S): 0.1143
ratio of IC50 for cells with mutant EGFR to IC50 for cells with wildtype EGFR (Mut/WT) (EGFR D770insNPG): 5.023
ratio of IC50 for cells with mutant EGFR to IC50 for cells with wildtype EGFR (Mut/WT) (EGFR Ex19del T790M): 14.38
ratio of IC50 for cells with mutant EGFR to IC50 for cells with wildtype EGFR (Mut/WT) (EGFR N771dupN): 7.062
ratio of IC50 for cells with mutant EGFR to IC50 for cells with wildtype EGFR (Mut/WT) (EGFR L858R/T790M): 11.95
ratio of IC50 for cells with mutant EGFR to IC50 for cells with wildtype EGFR (Mut/WT) (EGFR S720P): 0.02412
ratio of IC50 for cells with mutant EGFR to IC50 for cells with wildtype EGFR (Mut/WT) (EGFR H773insNPH): 11.56
ratio of IC50 for cells with mutant EGFR to IC50 for cells with wildtype EGFR (Mut/WT) (EGFR D761N): 0.1319
ratio of IC50 for cells with mutant EGFR to IC50 for cells with wildtype EGFR (Mut/WT) (EGFR Ex19del/C797S): 0.2272
ratio of IC50 for cells with mutant EGFR to IC50 for cells with wildtype EGFR (Mut/WT) (EGFR E709K L858R): 0.005792
ratio of IC50 for cells with mutant EGFR to IC50 for cells with wildtype EGFR (Mut/WT) (EGFR Ex19del/T790M/G724S): 4.197
SMILES: CN(C)C/C=C/C(=O)Nc1cc2c(Nc3ccc(Cl)c(Br)c3)ncnc2cn1 [Tarlox-TKI]
